Data taken from US10889555B2, “Sulfonamide compound or salt thereof” (Taiho Pharmaceutical Co., Ltd., priority 2016, dated 2021).

Test system: HCC 1806 cells
Assay: Cell proliferation inhibitory effect on human breast cancer cell line (crystal violet, 72 hours)
Format: cell-based
Conditions: Homo sapiens, HCC1806, 72 h, read-out: Cell growth suppression IC50
Procedure: Human derived breast cancer cell line HCC 1806 cells were daily passaged at a cell density not exceeding 80% in ATCC recommended Roswell Park Memorial Institute medium (RPMI-1640) containing 10% fetal bovine serum (FBS). In order to start the test of cell proliferation inhibitory activity, HCC 1806 cells were suspended in the above medium, after seeing at 180 μL in each well of a 96-well flat bottom plate so that the number of cells per well was 2,000, the cells were cultured at 37° C. for 1 day in an incubator containing 5% carbon dioxide gas. On the next day, the test compound was dissolved in DMSO, and 20 μL of a drug additive solution diluted serially with distilled water to 10 times of the final concentration was added to each well of the culture plate of the cells, and the cells were cultured at 37° C. for 72 hours in an incubator containing 5% carbon dioxide gas. After culturing for 72 hours, 20 μL of glutaraldehyde was added to each well and allowed to stand for 30 minutes, then the plate was washed 10 times with water and was dried. 100 μL of a stain solution (0.05% crystal violet in a 20% methanol solution) was added to each well and allowed to stand for 30 minutes, then the plate was washed 10 times with water and was dried. 100 μL of an extract solution (0.1 N NaH2PO4: 100% ethanol=1:1) was added to each well and mixed, and the mixture was measured at a wavelength of 540 nm using a plate reader (MTP-450 manufactured by Corona Electric Co., Ltd.). The growth inhibition rate was calculated from the following formula, and the concentration (IC50 (μM)) of a test compound inhibiting 50% was determined. Growth inhibition rate (%)={(C−B)−(T−B)}/(C−B)×100
T: Absorbance of well to which test compound was added
C: Absorbance of wells to which no test compound was added
B: Absorbance of wells to which no cell suspension was added

| SMILES | IC50 [nM] |
| --- | --- |
| Cc1ccc(F)c([C@@H](C)[C@H](NS(=O)(=O)c2ccc(Cl)c(C(=O)N3CCCC3)n2)c2n[nH]c(=O)o2)c1C [Example 114, 5-chloro-N-((1S,2R) 2-(6-fluoro-2,3-dimethylphenyl)-1-(5-oxo-4,5-dihydro-1,3,4-oxadiazol-2-yl)propyl)-6-(pyrrolidine-1-carbonyl)pyridine-2-sulfonamide] | 370 |
| COc1c(S(=O)(=O)N[C@H](c2n[nH]c(=O)o2)[C@H](C)c2c(F)ccc3ccccc23)ccc(Cl)c1C(C)O (stereo partly drawn) [Example 205, 4-chloro-N-((1S,2R)-2-(2-fluoronaphthalene-1-yl)-1-(5-oxo-4,5-dihydro-1,3,4-oxadiazol-2-yl)propyl)-3-(1-hydroxyethyl)-2-methoxybenzenesulfonamide] | 250 |
| Cc1c(C2CC2)ccc(F)c1[C@@H](C)[C@H](NS(=O)(=O)c1ccc(Cl)cc1C(N)=O)c1n[nH]c(=O)o1 [Example 26, 5-chloro-2-(N-((1S,2R)-2-(3-cyclopropy1-6-fluoro-2-methylphenyl)-1-(5-oxo-4,5-dihydro-1,3,4-oxadiazol-2-yl)propyl)sulfamoyl)benzamide] | 980 |
| Cc1ccc(F)c([C@@H](C)[C@H](NS(=O)(=O)c2cc(C(=O)N(C)C)c(Cl)cc2C(N)=O)c2n[nH]c(=O)o2)c1C [Example 39, 2-chloro-5-(N-((1S,2R)-2-(6-fluoro-2,3-dimethylphenyl)-1-(5-oxo-4,5-dihydro-1,3,4-oxadiazol-2-yl)propyl)sulfamoyl)-N1,N1-dimethyl terephthalamide] | 230 |
| Cc1c(Br)ccc(F)c1[C@@H](C)[C@H](NS(=O)(=O)c1ccc(Cl)cc1C(N)=O)c1n[nH]c(=O)o1 [Example 30, 2-(N-((1S,2R)-2-(3-bromo-6-fluoro-2-methylphenyl)-1-(5-oxo-4,5-dihydro-1,3,4-oxadiazol-2-yl)propyl)sulfamoyl)-5-chlorobenzamide] | 800 |
| Cc1c(Cl)ccc(F)c1[C@@H](C)[C@H](NS(=O)(=O)c1ccc(Cl)c2c1OCCN2C)c1n[nH]c(=O)o1 [Example 289, 5-chloro-N-((1S,2R)-2-(3-chloro-6-fluoro-2-methylphenyl)-1-(5-oxo-4,5-dihydro-1,3,4-oxadiazol-2-yl)propyl)-4-methyl-3,4-dihydro-2H-benzo[b][1,4]oxazine-8-sulfonamide] | 600 |
| Cc1ccc(F)c([C@@H](C)[C@H](NS(=O)(=O)c2cc(C(=O)N(C)C)ccc2C(N)=O)c2n[nH]c(=O)o2)c1C [Example 37, 3-(N-((1S,2R)-2-(6-fluoro-2,3-dimethylphenyl)-1-(5-oxo-4,5-dihydro-1,3,4-oxadiazol-2-yl)propyl)sulfamoyl)-N1,N1-dimethylterephthalamide] | 820 |
| C[C@H](c1c(F)ccc2ccccc12)[C@H](NS(=O)(=O)c1ccc(Cl)cc1C(N)=O)c1n[nH]c(=O)o1 [Example 6, 5-chloro-2-(N-((1S,2R)-2-(2-fluoronaphthalen-1-yl)-1-(5-oxo-4,5-dihydro-1,3,4-oxadiazol-2-yl)propyl)sulfamoyl)benzamide] | 290 |
| COc1cc(Cl)ccc1S(=O)(=O)N[C@H](c1n[nH]c(=O)o1)[C@H](C)c1c(F)ccc(-c2cnn(C3CCC3)c2)c1C [Example 312, 4-chloro-N-((1S,2R)-2-(3-(1-cyclobutyl-1H-pyrazol-4-yl)-6-fluoro-2-methylphenyl)-1-(5-oxo-4,5-dihydro-1,3,4-oxadiazol-2-yl)propyl)-2-methoxybenzenesulfonamide] | 870 |
| CNC(=O)c1nc(S(=O)(=O)N[C@H](c2n[nH]c(=O)o2)[C@H](C)c2c(F)ccc(C)c2C)ccc1Cl [Example 252, 3-chloro-6-(N-((1S,2R)-2-(6-fluoro-2,3-dimethylphenyl)-1-(5-oxo-4,5-dihydro-1,3,4-oxadiazol-2-yl)propyl)sulfamoyl)-N-methylpicolinamide] | 740 |
| CC(=O)OC1(C)CCOc2c(S(=O)(=O)N[C@H](c3n[nH]c(=O)o3)[C@H](C)c3c(F)ccc(C)c3C)ccc(Cl)c21 (stereo partly drawn) [Example 95, 5-chloro-8-(N-((1S,2R)-2-(6-fluoro-2,3-dimethylphenyl)-1-(5-oxo-4,5-dihydro-1,3,4-oxadiazol-2-yl)propyl)sulfamoyl)-4-methylchroman-4-yl acetate] | 140 |
| Cc1ccc(F)c([C@@H](C)[C@H](NS(=O)(=O)c2ccc(Cl)c3c2OCC(=O)N3CCO)c2n[nH]c(=O)o2)c1C [Example 273, 5-chloro-N-((1S,2R)-2-(6-fluoro-2,3-dimethylphenyl)-1-(5-oxo-4,5-dihydro-1,3,4-oxadiazol-2-yl)propyl)-4-(2-hydroxyethyl)-3-oxo-3,4-dihydro-2H-benzo[b][1,4]oxazine-8-sulfonamide] | 810 |
| CCc1ccc(F)c([C@@H](C)[C@H](NS(=O)(=O)c2ccc(Cl)c(C(C)O)c2OC)c2n[nH]c(=O)o2)c1C (stereo partly drawn) [Example 206A, 4-chloro-N-((1S,2R)-2-(3-ethyl-6-fluoro-2-methylphenyl)-1-(5-oxo-4,5-dihydro-1,3,4-oxadiazol-2-yl)propyl)-3-(1-hydroxyethyl)-2-methoxybenzenesulfonamide] | 570 |
| CC(=O)OC1(C(F)(F)F)CCOc2c(S(=O)(=O)N[C@H](c3n[nH]c(=O)o3)[C@H](C)c3c(F)ccc(C)c3C)ccc(Cl)c21 (stereo partly drawn) [Example 123, 5-chloro-8-(N-((1S,2R)-2-(6-fluoro-2,3-dimethylphenyl)-1-(5-oxo-4,5-dihydro-1,3,4-oxadiazol-2-yl)propyl)sulfamoyl)-4-(trifluoromethyl)chroman-4-yl acetate] | 170 |

Results, then the molecule that gave them:

| IC50 [nM] | SMILES |
| --- | --- |
| 870 | COc1cc(Cl)ccc1S(=O)(=O)N[C@H](c1n[nH]c(=O)o1)[C@H](C)c1c(F)ccc(-c2c[nH]nc2C)c1C [Example 308, 4-chloro-N-((1S,2R)-2-(6-fluoro-2-methyl-3-(3-methyl-1H-pyrazol-4-yl)phenyl)-1-(5-oxo-4,5-dihydro-1,3,4-oxadiazol-2-yl)propyl)-2-methoxybenzenesulfonamide] |
| 650 | CC(=O)c1cc(Cl)ccc1S(=O)(=O)N[C@H](c1n[nH]c(=O)o1)[C@H](C)c1c(F)ccc(C)c1C [Example 147, 2-acetyl-4-chloro-N-((1S,2R)-2-(6-fluoro-2,3-dimethylphenyl)-1-(5 oxo-4,5-dihydro-1,3,4-oxadiazol-2-yl)propyl)benzenesulfonamide] |
| 480 | CCN1CCOc2c(S(=O)(=O)N[C@H](c3n[nH]c(=O)o3)[C@H](C)c3c(F)ccc(C)c3C)ccc(Cl)c21 [Example 94, 5-chloro-4-ethyl-N-((1S,2R)-2-(6-fluoro-2,3-dimethylphenyl)-1-(5-oxo-4,5-dihydro-1,3,4-oxadiazol-2-yl)propyl)-3,4-dihydro-2H-benzo [b][1,4]oxazine-8-sulfonamide] |
| 410 | Cc1c(Cl)ccc(F)c1[C@@H](C)[C@H](NS(=O)(=O)c1ccc(Cl)c2c1OCCC2(C)N)c1n[nH]c(=O)o1 (mixture of isomers) [Example 328, 4-amino-5-chloro-N-((1S,2R)-2-(3-chloro-6-fluoro-2-methylphenyl)-1-(5-oxo-4,5-dihydro-1,3,4-oxadiazol-2-yl)propyl)-4-methylchroman-8-sulfonamide] |
| 310 | Cc1c(Cl)ccc(F)c1[C@@H](C)[C@H](NS(=O)(=O)c1ccc(F)c2c1OCCC2(C)O)c1n[nH]c(=O)o1 (single isomer, unassigned) [Example 229A] |
| 150 | Cc1ccc(F)c([C@@H](C)[C@H](NS(=O)(=O)c2ncc(Cl)cc2C(N)=O)c2n[nH]c(=O)o2)c1C [Example 245, 5-chloro-2-(N-((1S,2R)-2-(6-fluoro-2,3-dimethylphenyl)-1-(5-oxo-4,5-dihydro-1,3,4-oxadiazol-2-yl)propyl)sulfamoyl)nicotinamide] |
| 150 | COc1c(S(=O)(=O)N[C@H](c2n[nH]c(=O)o2)[C@H](C)c2c(F)ccc(C)c2C)ccc(Cl)c1C(C)O (stereo partly drawn) [Example 204, 4-chloro-N-((1S,2R)-2-(6-fluoro-2,3-dimethylphenyl)-1-(5-oxo-4,5-dihydro-1,3,4-oxadiazol-2-yl)propyl)-3-(1-hydroxyethyl)-2-methoxybenzenesulfonamide] |
| 140 | CC(=O)OC1(C)CCOc2c(S(=O)(=O)N[C@H](c3n[nH]c(=O)o3)[C@H](C)c3c(F)ccc(Br)c3C)ccc(Cl)c21 (stereo partly drawn) [Example 167, 8-(N-((1S,2R)-2-(3-bromo-6-fluoro-2-methylphenyl)-1-(5-oxo-4,5-dihydro-1,3,4-oxadiazol-2-yl)propyl)sulfamoyl)-5-chloro-4-methylchroman-4-yl-acetate] |

Same assay, conditions: read-out: Cell growth suppression IC50

| IC50 [nM] | SMILES |
| --- | --- |
| 700 | Cc1c(Br)ccc(F)c1[C@@H](C)[C@H](NS(=O)(=O)c1ccc(Cl)c2c1OCCC2O)c1n[nH]c(=O)o1 (single isomer, unassigned) [Example 243B] |
| 500 | Cc1ccc(F)c([C@@H](C)[C@H](NS(=O)(=O)c2ccc(Cl)c3c2OCCC3(O)C(F)(F)F)c2n[nH]c(=O)o2)c1C (single isomer, unassigned) [Example 220B] |
